Test results from patent US7645752B2, “Sulfonyl substituted 1H-indoles as ligands for the 5-hydroxytryptamine receptors” (Wyeth LLC, priority 2006, dated 2010).
Where two headings read alike, the source gives them in different places.

Biological target: T1, human cloned 5-HT6 receptors (Homo sapiens, UniProt P50406)
T1 construct: expressed in transfected cells; host or cells: HeLa cells
Assay: 5-HT6 binding affinity, [3H]-LSD displacement on membranes of Hela cells
Conditions: for inhibition at 1 µM: read-out: % inhibition at 1 micromole
Description: The affinity of test compounds for the 5-HT6 receptor is evaluated in the following manner. Cultured Hela cells expressing human cloned 5-HT6 receptors are harvested and centrifuged at low speed (1,000×g) for 10.0 min to remove the culture media. The harvested cells are suspended in half volume of fresh physiological phosphate buffered saline solution and recentrifuged at the same speed. This operation is repeated. The collected cells are then homogenized in ten volumes of 50 mM Tris.HCl (pH 7.4) and 0.5 mM EDTA. The homogenate is centrifuged at 40,000×g for 30.0 min and the precipitate is collected. The obtained pellet is resuspended in 10 volumes of Tris.HCl buffer and recentrifuged at the same speed. The final pellet is suspended in a small volume of Tris.HCl buffer and the tissue protein content is determined in aliquots of 10-25 microliter volumes. […] The volume of the suspended cell membranes is adjusted to give a tissue protein concentration of 1.0 mg/mL of suspension. The prepared membrane suspension (10 times concentrated) is aliquoted in 1.0 mL volumes and stored at −70° C. until used in subsequent binding experiments.
Binding experiments are performed in a 96 well microtiter plate format in a total volume of 200 microliters. […] The test compounds are added in 20.0 microliter volume.
The bound complex caught on the filter disk is allowed to air dry and the radioactivity is measured in a Packard TopCount® equipped with six photomultiplier detectors, after the addition of 40.0 microliter Microscint®-20 scintillant to each shallow well.
Binding in the presence of varying concentrations of test compound is expressed as a percentage of specific binding in the absence of test compound. The results are plotted as log % bound versus log concentration of the test compound.

[1] = Table 1, [3H]-LSD 3.0 nM, Hela cell membranes, read-out: Ki (nM) @ 5-HT6 receptor
[2] = Table 1, 5-HT6 binding, at 1 micromole

T1 sequence (P50406 whole entry): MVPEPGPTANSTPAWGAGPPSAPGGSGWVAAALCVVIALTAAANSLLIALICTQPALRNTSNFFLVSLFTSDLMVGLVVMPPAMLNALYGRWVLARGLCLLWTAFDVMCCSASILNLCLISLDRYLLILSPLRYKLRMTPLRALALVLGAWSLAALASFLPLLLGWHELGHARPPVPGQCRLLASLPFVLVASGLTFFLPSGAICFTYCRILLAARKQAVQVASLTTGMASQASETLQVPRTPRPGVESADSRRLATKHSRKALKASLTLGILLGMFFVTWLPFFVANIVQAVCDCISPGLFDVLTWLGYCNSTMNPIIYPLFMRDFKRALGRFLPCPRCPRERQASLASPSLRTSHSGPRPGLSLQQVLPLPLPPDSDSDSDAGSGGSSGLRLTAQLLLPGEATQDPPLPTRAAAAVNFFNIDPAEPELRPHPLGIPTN

Row | SMILES | Ki [1] [nM] | inhibition at 1 µM [2] [%] | other results
1 | CCN(C)CCc1cccc2c(S(=O)(=O)c3ccccc3)c[nH]c12 [Example 24, N-ethyl-N-methyl-N-{2-[3-(phenylsulfonyl)-1H-indol-7-yl]ethyl}amine] | 11 |  | 
2 | CCC(C)CNCCc1ccc2c(S(=O)(=O)c3ccccc3)c[nH]c2c1 (stereo not shown) [Example 104, {2-[3-(phenylsulfonyl)-1H-indol-6-yl]-ethyl}-(2-methyl-butyl)-amine] |  | 69 | 
3 | O=S(=O)(c1ccccc1)c1c[nH]c2c(CCNC3CC3)cccc12 [Example 22, N-{2-[3-(phenylsulfonyl)-1H-indol-7-yl]ethyl}cyclopropanamine] |  |  | Ki: 5.5 nM
4 | CCN(CC)CCc1cccc2c(S(=O)(=O)c3ccccc3)c[nH]c12 [Example 25, N,N-diethyl-N-{2-[3-(phenylsulfonyl)-1H-indol-7-yl]ethyl}amine] | 21 |  | 
5 | CCCNCCc1cccc2c(S(=O)(=O)c3ccccc3)c[nH]c12 [Example 20, N-{2-[3-(phenylsulfonyl)-1H-indol-7-yl]ethyl}-N-propylamine] | 9.1 |  | 
6 | O=S(=O)(c1ccccc1)c1c[nH]c2cc(CCN3CCCCC3)ccc12 [Example 99, 3-(phenylsulfonyl)-6-(2-piperidin-1-ylethyl)-1H-indole] |  | 79 | 
7 | CCN(CC)CCc1ccc2c(S(=O)(=O)c3ccccc3)c[nH]c2c1 [Example 97, N,N-diethyl-N-{2-[3-(phenylsulfonyl)-1H-indol-6-yl]ethyl}amine] | 12.3 |  | 
8 | O=S(=O)(c1cccc(F)c1)c1c[nH]c2cccc(CCNC3CCC3)c12 [Example 68, N-{2-[3-(3-fluorophenylsulfonyl)-1H-indol-4-yl]ethyl}cyclobutanamine] | 23.5 |  | 
9 | CCN(CC)CCc1cccc2[nH]cc(S(=O)(=O)c3cccc(F)c3)c12 [Example 73, N,N-diethyl-N-{2-[3-(3-fluorophenylsulfonyl)-1H-indol-4-yl]ethyl}amine] |  | 78 | 
10 | O=S(=O)(c1ccccc1)c1c[nH]c2c(CCN3CCNCC3)cccc12 [Example 30, 3-(phenylsulfonyl)-7-(2-piperazin-1-ylethyl)-1H-indole] | 7.5 |  | 
11 | O=S(=O)(c1ccccc1)c1c[nH]c2cc(CCN3CCC3)ccc12 [Example 108, 6-(2-Azetidin-1-yl-ethyl)-3-phenylsulfonyl-1H-indole] | 74 |  | 
12 | CNCCc1ccc2c(S(=O)(=O)c3ccccc3)c[nH]c2c1 [Example 87, N-methyl-N-{2-[3-(phenylsulfonyl)-1H-indol-6-yl]ethyl}amine] | 10.5 |  | 
13 | O=S(=O)(c1cccc(F)c1)c1c[nH]c2cccc(CCNC3CC3)c12 [Example 67, N-{2-[3-(3-fluorophenylsulfonyl)-1H-indol-4-yl]ethyl}cyclopropanamine] |  | 77 | 
14 | O=S(=O)(c1ccccc1)c1c[nH]c2ccc(CCNCc3ccccc3)cc12 [Example 6, N-benzyl-N-{2-[3-(phenylsulfonyl)-1H-indol-5-yl]ethyl}amine] | 24 |  | 
15 | O=S(=O)(c1ccccc1)c1c[nH]c2cc(CCNC3CCCC3)ccc12 [Example 93, N-{2-[3-(phenylsulfonyl)-1H-indol-6-yl]ethyl}cyclopentanamine] |  | 71 | 
16 | CN(C)CCc1ccc2c(S(=O)(=O)c3ccccc3)c[nH]c2c1 [Example 86, N,N-dimethyl-N-{2-[3-(phenylsulfonyl)-1H-indol-6-yl]ethyl}amine] | 41.3 |  | 
17 | CC(NCCc1cccc2[nH]cc(S(=O)(=O)c3cccc(F)c3)c12)C(C)(C)C (stereo not shown) [Example 80, N-{2-[3-(3-fluorophenylsulfonyl)-1H-indol-4-yl]ethyl}-N-(1,2,2-trimethylpropyl)amine] | 13 |  | 
18 | CN(C)CCc1cccc2c(S(=O)(=O)c3ccccc3)c[nH]c12 [Example 18, N,N-dimethyl-N-{2-[3-(phenylsulfonyl)-1H-indol-7-yl]ethyl}amine] | 2.3 |  | 
19 | CC(C)CNCCc1cccc2[nH]cc(S(=O)(=O)c3cccc(F)c3)c12 [Example 77, N-isobutyl-N-{2-[3-(3-fluorophenylsulfonyl)-1H-indol-4-yl]ethyl}amine] | 14 |  | 
20 | NCCc1cccc2c(S(=O)(=O)c3ccccc3)c[nH]c12 [Example 29, {2-[3-(phenylsulfonyl)-1H-indol-7-yl]ethyl}amine] | 1.5 |  | 
21 | CCC(CC)NCCc1ccc2c(S(=O)(=O)c3ccccc3)c[nH]c2c1 [Example 103, (1-Ethyl-propyl)-{2-[3-(phenylsulfonyl)-1H-indol-6-yl]-ethyl}-amine] |  | 63 | 
22 | CCNCCc1ccc2c(S(=O)(=O)c3ccccc3)c[nH]c2c1 [Example 88, N-ethyl-N-{2-[3-(phenylsulfonyl)-1H-indol-6-yl]ethyl}amine] |  |  | Ki: 96.3 nM

Row | SMILES | Ki [1] [nM] | inhibition at 1 µM [2] [%] | other results
23 | CCC(CC)NCCc1cccc2[nH]cc(S(=O)(=O)c3cccc(F)c3)c12 [Example 78, (1-Ethyl-propyl)-{2-[3-(3-fluorophenylsulfonyl)-1H-indol-4-yl]-ethyl}-amine] | 80 |  | 
24 | CN(C)CCc1cccc2[nH]cc(S(=O)(=O)c3cccc(F)c3)c12 [Example 62, N,N-dimethyl-N-{2-[3-(3-fluorophenylsulfonyl)-1H-indol-4-yl]ethyl}amine] |  |  | inhibition at 1 µM: 72%
25 | CN(C)CCc1ccc2[nH]cc(S(=O)(=O)c3ccccc3)c2c1 [Example 1, N,N-dimethyl-N-{2-[3-(phenylsulfonyl)-1H-indol-5-yl]ethyl}amine] | 9 |  | 
26 | CC(C)NCCc1cccc2[nH]cc(S(=O)(=O)c3cccc(F)c3)c12 [Example 66, N-{2-[3-(3-fluorophenylsulfonyl)-1H-indol-4-yl]ethyl}propan-2-amine] |  | 58 | 
27 | CCCNCCc1cccc2[nH]cc(S(=O)(=O)c3cccc(F)c3)c12 [Example 65, N-{2-[3-(3-fluorophenylsulfonyl)-1H-indol-4-yl]ethyl}-N-propylamine] |  | 67 | 
28 | CCCNCCc1ccc2[nH]cc(S(=O)(=O)c3ccccc3)c2c1 [Example 2, N-{2-[3-(phenylsulfonyl)-1H-indol-5-yl]ethyl}-N-propylamine] |  |  | Ki: 34.7 nM
29 | O=S(=O)(c1ccccc1)c1c[nH]c2ccc(CCN3CCOCC3)cc12 [Example 11, 5-(2-morpholin-4-ylethyl)-3-(phenylsulfonyl)-1H-indole] | 39 |  | 
30 | O=S(=O)(c1ccccc1)c1c[nH]c2ccc(CCN3CCNCC3)cc12 [Example 13, 3-(phenylsulfonyl)-5-(2-piperazin-1-ylethyl)-1H-indole] | 68 |  | 
31 | NCCc1cccc2[nH]cc(S(=O)(=O)c3cccc(F)c3)c12 [Example 85, {2-[3-(3-fluorophenylsulfonyl)-1H-indol-4-yl]ethyl}amine] | 348 |  | 
32 | O=S(=O)(c1ccccc1)c1c[nH]c2cc(CCN3CCCC3)ccc12 [Example 98, 3-(phenylsulfonyl)-6-(2-pyrrolidin-1-ylethyl)-1H-indole] |  | 76 | 
33 | O=S(=O)(c1ccccc1)c1c[nH]c2c(CCN3CCCC3)cccc12 [Example 26, 3-(phenylsulfonyl)-7-(2-pyrrolidin-1-ylethyl)-1H-indole] | 18 |  | 
34 | CNCCc1cccc2[nH]cc(S(=O)(=O)c3cccc(F)c3)c12 [Example 63, N-methyl-N-{2-[3-(3-fluorophenylsulfonyl)-1H-indol-4-yl]ethyl}amine] |  | 61 | 
35 | CC(C)NCCc1ccc2[nH]cc(S(=O)(=O)c3ccccc3)c2c1 [Example 3, N-{2-[3-(phenylsulfonyl)-1H-indol-5-yl]ethyl}propan-2-amine] |  |  | Ki: 56.7 nM
36 | O=S(=O)(c1cccc(F)c1)c1c[nH]c2cccc(CCNCC3CCCO3)c12 (stereo not shown) [Example 82, N-{2-[3-(3-fluorophenylsulfonyl)-1H-indol-4-yl]ethyl}-N-((tetrahydrofur-2-yl)methyl)amine] |  | 72 | 
37 | CNCCc1cccc2c(S(=O)(=O)c3ccccc3)c[nH]c12 [Example 19, N-methyl-N-{2-[3-(phenylsulfonyl)-1H-indol-7-yl]ethyl}amine] | 2.3 |  | 
38 | O=S(=O)(c1ccccc1)c1c[nH]c2cc(CCNC3CCC3)ccc12 [Example 92, N-{2-[3-(phenylsulfonyl)-1H-indol-6-yl]ethyl}cyclobutanamine] |  | 75 | 
39 | CCCNCCc1ccc2c(S(=O)(=O)c3ccccc3)c[nH]c2c1 [Example 89, N-{2-[3-(phenylsulfonyl)-1H-indol-6-yl]ethyl}-N-propylamine] | 150 |  | 
40 | O=S(=O)(c1ccccc1)c1c[nH]c2cc(CCNC3CC3)ccc12 [Example 91, N-{2-[3-(phenylsulfonyl)-1H-indol-6-yl]ethyl}cyclopropanamine] | 41 |  | 
41 | O=S(=O)(c1ccccc1)c1c[nH]c2c(CCNC3CCCC3)cccc12 [Example 23, N-{2-[3-(phenylsulfonyl)-1H-indol-7-yl]ethyl}cyclopentanamine] | 18 |  | 
42 | O=S(=O)(c1ccccc1)c1c[nH]c2ccc(CCNC3CCCC3)cc12 [Example 5, N-{2-[3-(phenylsulfonyl)-1H-indol-5-yl]ethyl}cyclopentanamine] | 37 |  | 
43 | O=S(=O)(c1ccccc1)c1c[nH]c2cccc(CCC3CNCCO3)c12 (stereo not shown) [Example 100, 4-(2-morpholin-6-ylethyl)-3-(phenylsulfonyl)-1H-indole] |  | 54 | 
